Measured values published in patent US9211244B2, “Method for anti-skin aging using caffeamide derivative” (CHINA MEDICAL UNIVERSITY, priority 2013, dated 2015).

Tests used:
[1] = system: human fibroblast Hs68 cells; experiment: Scavenging test of ROS free radicals in UVB-irradiated cells; format: cell-based; conditions: UVB 80 mJ/cm^2, 24 hours
Procedure: After incubated in an incubator (37° C., 5% CO2) for 24 hours, the ROS level was examined.

MMP-1 = experiment: MMP expression, western blot, UVB-irradiated Hs68 cells; format: cell-based, human; conditions: 5 μM; UVB 40 mJ/cm^2; 48 hours
Procedure: (§1) Human fibroblast Hs68 cells (5×10^5) (the number of Bioresource Collection and Research Center (BCRC): 60038) were counted and incubated in a culture dish with a diameter of 10 cm (the culture dish components were adjusted by L-glutamine (4 mM) to have 1.5 g/L NaHCO3, 4.5 g/L glucose, and 90% Dulbecco's Modified Eagle's Medium with 10% fetal bovine serum (FBS)). The medium was removed until human fibroblast Hs68 cells grow to a confluence of 80%, and the cells were then washed once with 5 ml PBS (phosphate buffered saline). Then, 3 ml phenol red-free medium which contain different concentrations (0 μM to 25 μM) of the compounds of formula (1) or formula (2) prepared in Example 1 were added into the culture dish. After incubating for 1 hour, the cells were irradiated by UV light (UVB with an intensity of 40 mJ/cm^2) for 15 seconds. Next, the phenol red-free medium which contains different concentrations (0 μM to 25 μM) of the compounds of formula (1) or formula (2) prepared in Example 1 were added into the culture dish sequentially. After incubation in an incubator (37° C., 5% CO2) for 48 hours, the cells were collected.
(§2) The collected cells were treated with a sonication buffer (containing Na3VO4 (100 μM), phenylmethanesulfonyl fluoride (PMSFL, 100 mg/ml), leupeptin (20 mg/ml), Tris-HCl (pH 7.4, 50 μM), NaCl (37.5 μM), DL-dithiothretiol (250 μM), sodium deoxycholate (3 μM), EDTA (1 μM), SDS (0.1%), and Igepal™ CA-630 (Sigma-Aldrich, 1%)) and sonicated to rupture the cell membranes. Then, the organelles and fragments of the cells were precipitated by centrifugation, and the supernatant, which contains proteins in the cytosol was collected. Next, the obtained proteins were separated by SDS-PAGE, and transferred to a membrane by western blotting. Antibodies were used to recognize the targeted proteins, such as MMP-1, MMP-3, MMP-9, and actin. The images were recorded by a Luminescent imagination technology (LAS-4000, FUJIFILM), and the variation of the proteins expression levels were determined by a quantitative analysis software (multi Gauge 2.2, Steware Technology Inc.).

MMP-3 = experiment: as above; format: cell-based, human; conditions: 25 μM; UVB 40 mJ/cm^2; 48 hours
Procedure: as §1, §2

p-ERK = experiment: Inhibition test of the phosphorylation of MAPK, western blot; format: cell-based, human; conditions: 10 μM; UVB 40 mJ/cm^2
Procedure: (§3) It has been known that the skin photo-aging caused by UV rays will increase the content of MMPs in the dermis by the phosphorylation of MAPK. In this experiment, the effect of caffeamide derivative on the phosphorylation of MAPK in the cells was analyzed by western blotting.
(§4) After being treated with the compound of formula (2) prepared in Example 1, the protein expression levels of the MAPKs induced by UVB were inhibited in a concentration dependent way. Specifically, when the concentration of the compound of formula (2) was 10 μM, the expression level of P-ERK was 1.1 times as compared to that of the untreated cells. When the concentration of the compound of formula (2) was 5 μM, the expression levels of p-JNK and p-p38 were both 1.1 times as compared to that of the untreated cells.

p-JNK = experiment: as above; format: cell-based, human; conditions: 5 μM; UVB 40 mJ/cm^2
Procedure: as §3, §4

p-p38 = experiment: as above; format: cell-based, human; conditions: 5 μM; UVB 40 mJ/cm^2
Procedure: as §3, §4

c-Fos = experiment: Inhibition test of AP-1 gene transcription factors, western blot; format: cell-based, human; conditions: 10 μM; UVB 40 mJ/cm^2
Description: When cells are irradiated by UV rays, JNK, p38 and c-Jun in the cells will translocated into the nucleus, and c-For will translocate into the nucleus under the regulation of ERK and p38. The two subunits of c-Jun and c-Fos will combine to form an AP-1 gene transcription factor to participate in gene expression process and increase the mRNA transcription level of MMP-1. On the other hand, the two subunits can also reduce the gene expression level of procollagen al of Type I collagen. Therefore, in this experiment, the expression of AP-1 in the nucleus was analyzed by western blotting.
However, after the cells were treated with the compound of formula (2) prepared in Example 1, the protein expression levels of c-Fos, p-c-Jun, and c-Jun induced by UVB were inhibited in a concentration dependent way. Specifically, when the concentration of the compound of formula (2) was 10 μM, the expression level of c-Fos was 1.1 as compared to that of the untreated cells.

[2] = system: human fibroblast Hs68 cells; experiment: Cellular toxicity evaluation, MTT assay; format: cell-based; conditions: 24 hours
Procedure: MTT (3-(4,5-dimethylthiazol-2-yl)-2,5-diphenyl tetrazolium bromide) assay was used to determine the cellular toxicity of the caffeamide derivatives described herein. First, different concentrations (0 μM to 100 μM) of the compounds of formula (1) or formula (2) prepared in Example 1 of the present invention were added, respectively, into a 96-well microplate which containing human fibroblast Hs68 cells (1×10^4 cells per well). After the cells were incubated in an incubator at 37° C. and 5% CO2 for 24 hours, 15 μl of MTT solution (0.5 mg/ml; dissolved in PBS) was added into the microplate and the human fibroblast Hs68 cells were incubated for 3 hours. Next, 75 μl SDS (sodium dodecyl sulfate) solution (10% SDS was dissolved in 0.01N HCl) was added into the microplate. After the cells were maintained for 24 hours, the absorbances of each well were measured at a wavelength of 570 nm by an enzyme immunoassay analyzer. Finally, the cell survival rate was calculated by the following formula to observe the cellular toxicity of compounds. The results are shown in Table 5, FIG. 10a and FIG. 10b. Cell survival rate(%)=absorbance of the experimental group/absorbance of the control group.

O=C(C=Cc1ccc(O)c(O)c1)NCCc1ccc(Br)cc1 [Compound of formula (2)]
Concentration of ROS (times compared to the untreated cells) ([1]; 5 μM): 1.0 ± 0.09 times | Concentration of ROS (times compared to the untreated cells) ([1]; 10 μM): 0.9 ± 0.02 times | Concentration of ROS (times compared to the untreated cells) ([1]; 10 μM, listed as compound of formula (2)): 0.9 times | Concentration of ROS (times compared to the untreated cells) ([1]; 25 μM): 0.8 ± 0.04 times | Concentration of ROS (times compared to the untreated cells) ([1]; 25 μM, listed as compound of formula (2)): 0.8 times | expression level of MMP-1 as compared to that of the untreated cells (MMP-1): 1.1 times | expression level of MMP-3 as compared to that of the untreated cells (MMP-3): 1.0 times | expression level of p-ERK as compared to that of the untreated cells (p-ERK): 1.1 times | expression level of p-JNK as compared to that of the untreated cells (p-JNK): 1.1 times | expression level of p-p38 as compared to that of the untreated cells (p-p38): 1.1 times | expression level of c-Fos as compared to that of the untreated cells (c-Fos): 1.1 | Cell survival rate (%) ([2]; 5 μM): 92.0 ± 1.0% | Cell survival rate (%) ([2]; 10 μM): 90.4 ± 2.3% | Cell survival rate (%) ([2]; 25 μM): 89.7 ± 2.8% | Cell survival rate (%) ([2]; 50 μM): 86.1 ± 1.4%
